In PMC12802956, “Dalbavancin dosing in a severely underweight person with prosthetic valve endocarditis: the critical role of proactive therapeutic drug monitoring” (Journal of Antimicrobial Chemotherapy, 2025):
Where two headings read alike, the source gives them in different places.

Experiments:
[1] = Tolerability of earlier antibiotic therapy in the patient; type: in vivo, human; conditions: single patient, treatment before the start of dalbavancin
Excerpt: (§1) We report the case of a patient who required initiation of dalbavancin therapy in November 2024 for infective endocarditis of a biological aortic valve (replaced April 2024) caused by Corynebacterium striatum. […] Due to a high surgical risk, the patient was deemed ineligible for repeat cardiac surgery.

[2] = Therapeutic drug monitoring of dalbavancin plasma concentrations (Cmin, Cmax) in a severely underweight patient; type: in vivo, human
Method: Following multidisciplinary consultation, a dosing regimen of dalbavancin 1000 mg administered on day 1 and day 8 was initiated. Subsequent dosing intervals were guided based on TDM results, assessing both minimum (Cmin, within 1 h before the injection) and maximum (Cmax, 30–60 min after the end of infusion) dalbavancin plasma concentrations, as previously described.[3],[4] Cmin and Cmax values were incorporated into log-linear regression models by plotting the logarithm of dalbavancin plasma concentrations against time, to estimate individualized timing of subsequent doses, with the aim of maintaining Cmin levels above 8 mg/L (based on a breakpoint MIC of […]).[3–7],[9]
The quantification of dalbavancin plasma concentrations was performed using a previously validated liquid chromatography–tandem mass spectrometry method.[10] The volume of distribution was estimated as the ratio between the dalbavancin dose and the mean Cmax concentration. Written informed consent for all medical procedures and interventions performed in accordance with clinical practice was obtained from the patient.

Corynebacterium striatum = assay: Clinical course of prosthetic aortic valve infective endocarditis under dalbavancin therapy; type: in vivo, human; conditions: single patient
Excerpt: as §1
The eighth dalbavancin dose was scheduled 50 days after the previous administration.

[3] = cited from earlier work
Excerpt: As a result, severely underweight patients may theoretically be at risk of drug overexposure when treated with the conventional 1 ...

Row | Compound | tolerability in the patient [1] | Cmin (minimum dalbavancin plasma concentration) ([2]; patient, 28-38 kg, 1000 mg on day 1 and day 8, then TDM-guided intervals, seven administrations over 217 days, sampled within 1 h before the injection, plasma, LC-MS/MS, at each TDM assessment) | volume of distribution, range ([2]; severely underweight patient (28-38 kg), dose/Cmax, range over the observation period) | mean volume of distribution ([2]; severely underweight patient (28-38 kg), ratio between dalbavancin dose and mean Cmax (30-60 min after end of infusion), plasma LC-MS/MS, mean ± spread over administrations) | volume of distribution (approximate, as discussed) ([2]; severely underweight patient, markedly reduced compared with reported values) | PET scan finding (Corynebacterium striatum; PET scan 6 months after initiation of dalbavancin therapy) | clinical status at last follow-up visit (Corynebacterium striatum; last follow-up visit after seven dalbavancin administrations, negative inflammatory markers) | volume of distribution ([3]; normal-weight individuals) | volume of distribution ([3]; obese individuals) | volume of distribution ([3]; overweight individuals)
1 | vancomycin | discontinued due to a cutaneous adverse reaction | – | – | – | – | – | – | – | – | –
2 | CN[C@H]1C(=O)N[C@@H]2Cc3ccc(cc3)Oc3cc4cc(c3O[C@@H]3O[C@H](C(=O)O)[C@@H](O)[C@H](O)[C@H]3NC(=O)CCCCCCCCC(C)C)Oc3ccc(cc3Cl)[C@@H](O)[C@@H]3NC(=O)[C@H](NC(=O)[C@@H]4NC(=O)[C@@H](NC2=O)c2cc(cc(O)c2Cl)Oc2cc1ccc2O)c1ccc(O)c(c1)-c1c(O[C@H]2O[C@H](CO)[C@@H](O)[C@H](O)[C@@H]2O)cc(O)cc1[C@@H](C(=O)NCCCN(C)C)NC3=O [dalbavancin, Dalbavancin] | – | exceeded 8 mg/L | 2.2 to 3.1 L | 2.7 ± 0.4 L | 2 to 3 L | stability of the infectious process | no fever or signs of systemic infection | 3 to 4 L | 6 to 7 L | 4 to 5 L
